The values below come from paper PMC6264390, “Design, Synthesis and Structure-activity Studies of Rhodanine Derivatives as HIV-1 Integrase Inhibitors” (Molecules, 2010).

SMILES strings stand for the structures. Like-named read-outs stand apart in the source and are kept apart here.

The test system of series [1] is IN. Further details: method as in PMID 15634005. The following applies: cited from earlier work.
For series [2], the target named is T1, HIV-1 IN (Human immunodeficiency virus type 1 group M subtype B, UniProt P12497).
T1 construct: pre-incubated with purified recombinant IN (at a final concentration of 200 nM); made in house
The experiment in a line: In vitro IN inhibition assay (3’-processing and strand transfer). It counts as biochemical. Put shortly: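 Recombinant HIV-1 IN (200 nM) preincubated with compound 30 min at 30 °C in MnCl2-containing buffer (MgCl2 plus PEG for Mg2+ format), then 1 h with 20 nM 5'-32P-labeled 21-mer duplex. 3'-processing and strand-transfer products resolved on denaturing gels, phosphorimager-quantified; IC50 from log-concentration versus % inhibition.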

The target of series [3] is T2, human apurinic/apyrimidinic endonuclease 1 (APE1) (Homo sapiens, UniProt P27695).
T2 construct: His; made in house
T2 sequence (P27695 whole entry): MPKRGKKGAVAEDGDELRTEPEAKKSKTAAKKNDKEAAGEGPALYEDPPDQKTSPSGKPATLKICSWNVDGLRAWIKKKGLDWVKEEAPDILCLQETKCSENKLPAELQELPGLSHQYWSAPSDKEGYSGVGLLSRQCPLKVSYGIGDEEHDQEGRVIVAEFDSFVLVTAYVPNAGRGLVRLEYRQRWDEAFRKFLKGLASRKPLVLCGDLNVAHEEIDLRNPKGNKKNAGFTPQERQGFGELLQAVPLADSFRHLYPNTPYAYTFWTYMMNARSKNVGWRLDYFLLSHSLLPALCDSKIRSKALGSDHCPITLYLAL
The experiment in a line: APE1 inhibition assay. It counts as biochemical. Conditions: for IC50: read-out: Inhibition of APE1 catalytic activity IC50; for APE1 inhibition (in words): at 100 μM. Put shortly:
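His-tagged APE1 (0.05 nM) preincubated with compound 10 min at 30 °C in MOPS pH 7.2 buffer with 7.5 mM MnCl2 and 10% DMSO, then 200 nM 5′-32P-labelled abasic (THF) duplex added for 10 min. Incision products resolved on denaturing gel, phosphorimaged; IC50 from %I versus log concentration.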

For series [4], the system named is HIV-1. The experiment in a line: MT-4 cell infectivity assay. It counts as cell-based. The following applies: MT-4 cells.
Setting [5] is: Mn2+ cofactor (7.5 mM MnCl2), read-out: Inhibition of IN catalytic activity IC50, 3’-Processing.
Where [6] appears, read: Mn2+ cofactor (7.5 mM MnCl2), read-out: Inhibition of IN catalytic activity IC50, Strand Transfer.

For `O=C(O)c1ccc(N2C(=O)/C(=C/c3ccccc3)SC2=S)cc1` [Compound 1], the IC50 in series [1] (read-out: IC50, 3’-processing) was 15 µM; in series [1] (read-out: IC50, strand transfer) it was 11 µM.

For the compound `O=C(Nc1ccc(O)cc1)C(=S)NN1C(=O)C(=Cc2cc([N+](=O)[O-])ccc2O)SC1=S` [Compound 44, 2-{[5-(2-Hydroxy-5-nitrobenzylidene)-4-oxo-2-thioxo-1,3-thiazolidin-3-yl]amino}-N-(4-hydroxy-phenyl)-2-thioxoacetamide], the melting point was 199 to 200 °C. For the same compound, the IC50 in series [2] (setting [5]) turned out to be 53 ± 8 µM. For the same compound, in series [2] (setting [6]), the IC50 stood at 45 ± 14 µM. Also, in series [3], the IC50 is more than 100 µM.

Consider `CCOc1cccc(C=C2SC(=S)N(NC(=S)C(=O)Nc3ccc(O)cc3)C2=O)c1O` [Compound 45, 2-{[5-(3-Ethoxy-2-hydroxybenzylidene)-4-oxo-2-thioxo-1,3-thiazolidin-3-yl]amino}-N-(4-hydroxyphenyl)-2-thioxoacetamide], for which the melting point fell in the range of 184 to 185 °C. Further, the IC50 in series [2] (setting [5]) was more than 100 µM. Also, the IC50 in series [2] (setting [6]) is more than 100 µM. In addition, in series [3], the IC50 is more than 100 µM.

In turn, `C=CCc1cccc(C=C2SC(=S)N(NC(=S)C(=O)Nc3ccc(O)cc3)C2=O)c1O` [Compound 46, 2-{[5-(3-Allyl-2-hydroxybenzylidene)-4-oxo-2-thioxo-1,3-thiazolidin-3-yl]amino}-N-(4-hydroxy-phenyl)-2-thioxoacetamide] returned a melting point of 153 to 154 °C. The IC50 in series [2] (setting [5]) was more than 100 µM. For the same compound, the IC50 in series [2] (setting [6]) was determined as 100 µM. Besides, the IC50 in series [3] is more than 100 µM.

`CCN(CC)c1ccc(C=C2SC(=S)N(NC(=S)C(=O)Nc3ccc(O)cc3)C2=O)c(O)c1` [Compound 47, 2-({5-[4-(Diethylamino)-2-hydroxybenzylidene]-4-oxo-2-thioxo-1,3-thiazolidin-3-yl}amino)-N-(4-hydroxyphenyl)-2-thioxoacetamide] had a melting point of 206 to 207 °C. For the same compound, the IC50 in series [2] (setting [5]) is more than 100 µM. The IC50 in series [2] (setting [6]) is more than 100 µM. For the same compound, in series [3], the IC50 is more than 100 µM.

On to `O=C(Nc1ccc(O)cc1)C(=S)NN1C(=O)C(=Cc2cc(N=Nc3ccccc3)ccc2O)SC1=S` [Compound 48, N-(4-hydroxyphenyl)-2-[(5-{2-hydroxy-5-[(E)-phenyldiazenyl]benzylidene}-4-oxo-2-thioxo-1,3-thiaz-olidin-3-yl)amino]-2-thioxoacetamide], for which the melting point was 145 to 146 °C. Moreover, the half-maximal inhibitory concentration (IC50) in series [2] (setting [5]) was 17 ± 7 µM. Further, the IC50 in series [2] (setting [6]) was 8 ± 2 µM. Moreover, in series [3], the “APE1 inhibition (in words)” value is “did not show any significant APE1 inhibition” and the IC50 was more than 100 µM. Moreover, the “antiviral activity against HIV-1” value in series [4] is listed as “did not show any significant antiviral activity”.

In the case of `O=C(Nc1ccc(O)cc1)C(=S)NN1C(=O)C(=Cc2ccc(O)c(C(=O)O)c2)SC1=S` [Compound 49, 2-Hydroxy-5-{[3-({2-[(4-hydroxyphenyl)amino]-2-oxoethanethioyl}amino)-4-oxo-2-thioxo-1,3-thiazolidin-5-ylidene]methyl}benzoic acid], the melting point lay in the range of 223 to 224 °C. In addition, the IC50 in series [2] (setting [5]) stood at 80 µM. Moreover, the concentration for half-maximal inhibition (IC50) in series [2] (setting [6]) stood at 45 µM. For the same compound, in series [3], the IC50 is more than 100 µM.

With `O=C(Nc1ccc(O)cc1)C(=S)NN1C(=O)C(=Cc2cc(Cl)cc(Cl)c2O)SC1=S` [Compound 50, 2-{[5-(3,5-Dichloro-2-hydroxybenzylidene)-4-oxo-2-thioxo-1,3-thiazolidin-3-yl]amino}-N-(4-hydroxy-phenyl)-2-thioxoacetamide], the melting point was in the range of 217 to 218 °C. Further, the IC50 in series [2] (setting [5]) was found to be 60 µM. In addition, the IC50 in series [2] (setting [6]) was 55 µM. For the same compound, the IC50 in series [3] was more than 100 µM.

`O=C(Nc1ccc(O)cc1)C(=S)NN1C(=O)C(=Cc2cc(Br)cc(Br)c2O)SC1=S` [Compound 51, 2-{[5-(3,5-Dibromo-2-hydroxybenzylidene)-4-oxo-2-thioxo-1,3-thiazolidin-3-yl]amino}-N-(4-hydroxy-phenyl)-2-thioxoacetamide] came in with a melting point of 189 to 190 °C. Besides, in series [2] (setting [5]), the IC50 came out at 28 ± 1 µM. For the same compound, in series [2] (setting [6]), the IC50 worked out at 21 ± 7 µM. In series [3], the “APE1 inhibition (in words)” value is recorded as “did not show any significant APE1 inhibition” and the IC50 is more than 100 µM. For the same compound, the “antiviral activity against HIV-1” value in series [4] is given as “did not show any significant antiviral activity”.

In turn, `COc1cc(Br)cc(C=C2SC(=S)N(NC(=S)C(=O)Nc3ccc(O)cc3)C2=O)c1O` [Compound 52, 2-{[5-(5-Bromo-2-hydroxy-3-methoxybenzylidene)-4-oxo-2-thioxo-1,3-thiazolidin-3-yl]amino}-N-(4-hydroxyphenyl)-2-thioxoacetamide] gave a melting point of 176 to 177 °C. The concentration for half-maximal inhibition (IC50) in series [2] (setting [5]) is 38 ± 27 µM. In addition, in series [2] (setting [6]), the IC50 was found to be 23 ± 9 µM. For the same compound, the IC50 in series [3] is more than 100 µM.

Consider `O=C(Nc1ccc(O)cc1)C(=S)NN1C(=O)C(=Cc2cc(I)cc(I)c2O)SC1=S` [Compound 53, 2-{[5-(2-Hydroxy-3,5-diiodobenzylidene)-4-oxo-2-thioxo-1,3-thiazolidin-3-yl]amino}-N-(4-hydroxy-phenyl)-2-thioxoacetamide], for which the melting point lay within 157 to 158 °C. Besides, the “selectivity for IN than APE1” value in series [2] (IN versus APE1) is listed as 20 fold. Besides, the IC50 in series [2] (setting [5]) was determined as 7 ± 3 µM. Besides, the IC50 in series [2] (setting [6]) came to 3 ± 2 µM. Moreover, the half-maximal inhibitory concentration (IC50) in series [2] (in the presence of Mg^2+ as the cofactor, read-out: Inhibition of IN catalytic activity IC50, 3’-Processing, Mg2+ (converted)) was 12.5 µM. Moreover, the half-maximal inhibitory concentration (IC50) in series [2] (in the presence of Mg^2+ as the cofactor, read-out: Inhibition of IN catalytic activity IC50, Strand Transfer, Mg2+ (converted)) was 11 µM. Also, in series [3], the IC50 was found to be 62 ± 3 µM. The “antiviral activity against HIV-1” value in series [4] was “did not show any significant antiviral activity”.
